Experimental data taken from US20050034187A1, “Modified tet-inducible system for regulation of gene expression in plants” (priority 2000, published 2005).

Tests used:
tobacco line pACAG029#4 = details: in vivo
Excerpt: FIG. 36—tet-Inducible Herbicide Resistance: Spray Test of F1 Seedlings and Seeds of Tobacco Line pACAG029#4. Seedlings at different stages of development (1 and 2 weeks old), produced by germination in 2.5″×2.5″ pots with Metro mix, were used for assessing tet inducible herbicide resistance in a post-emergence test. For pre-emergency application, seeds were sown on the Metro mix right before PURSUIT®, application. 15-20 seeds were placed in each pot. Pots were sprayed with doxycycline premixed with PURSUIT®, each at different rates. The test was evaluated two weeks after the spray. Each pot in the figure represents a unique experiment in terms of the combination of chemical rates and the stage of seedling development. As shown in the figure, the rate of herbicide resistance directly corresponded with increased doxycycline application rates.
Induction of herbicide resistance in plants growing in soil has been investigated. Transgenic F1 heterozygous tobacco seeds of the line pACAG029#4 (this line has been shown elsewhere herein to provide the best repression/induction in tissue culture tests) ere used for the spray test. Seedlings at different stages of development (1 and 2 weeks old) produced by germination of seeds in 2.5″×2.5″ pots with Metro mix were used for post-emergence test. For pre-emergency application, seeds were sown on the Metro mix right before the application of herbicide. […]

[1] = system: TripleX/GUS (pAC499) repressed by nTR under control of different promoters; test: Leaf disk induction experiment, GUS assay (double transformants); assay type: cell-based, tobacco; details: Doxy 5 mg/l, leaf disks, FIG. 2
Excerpt: FIG. 2—Induction of GUS Gene in Leaves Expressing NLS-tet Receptor Under Control of Different Promoters. Tobacco plants. already expressing pAC499 (TripleX/GUS) were transformed with […] pCAMBIA-based Agro cassettes carrying NPTII marker gene and nTR under control of 35S, 2×35S, A. thaliana HPPD, A. thaliana AHAS, A. thaliana Actin and (OCS)3MAS promoters (pACAG076, 077, 078, 079, 109 and 084), as well as pAC489 (35S/WtTR) to yield a number of transgenic lines. This collection of tobacco plants was tested in a preliminary induction experiment performed on leaf disks: 5-10 mm leaf disks were excised from plants and put into six- or twelve-well plates with liquid MS medium and with or without Doxy 5 mg/l at 5 mg/l. GUS assays were performed with the tissues 5 days later. Each bar represents one sample; numbers above the bars represent magnitude of induction.
FIG. 3—Induction of GUS Gene In Tobacco Leaves Expressing nTR Under Control of Different Promoters. […]
Evaluation of tet inducible system in plant tissues. […] These plates were cultivated in dark on shaker at 90 rpm for 5 days (three weeks for analysis of induction of herbicide resistance) and then used in assays or evaluated visually. […] Three weeks later the induction of regeneration from these disks was evaluated.

`C[C@H]1c2cccc(O)c2C(=O)C2=C(O)[C@]3(O)C(=O)C(C(N)=O)=C(O)[C@@H](N(C)C)[C@@H]3[C@@H](O)[C@@H]21` [doxycycline] was tested, and the “plant injury in spray test” value (tobacco line pACAG029#4) was “caused some injury and stunted growth of plants”, the “magnitude of induction of GUS” value ([1]; nTR driven by 35S promoter, 5 days) was 26 to 76 fold and the “maximum induction of GUS” value ([1]; nTR driven by HPPD and AHAS promoters) was 1.4 fold.
